# Test results published in patent US10582709B2, “Butyrolactones as herbicides” (FMC Corporation, priority 2015, dated 2020).
# Tested on: wheat (Triticum aestivum)
# Experiment: Test A postemergence, wheat
# Format: in vivo
# Details: 125 g ai/ha, visual rating after approx. 10 d, 0 to 100 scale, 0 no effect, 100 complete control
# Source text: (§1) Seeds of plant species selected from barnyardgrass (Echinochloa crus-galli), crabgrass (large crabgrass, Digitaria sanguinalis), kochia (Kochia scoparia), ragweed (common ragweed, Ambrosia elatior), morningglory (Ipomoea spp.), velvetleaf (Abutilon theophrasti), ryegrass, Italian (Italian ryegrass, Lolium multiflorum), foxtail, giant (giant foxtail, Setaria faberii), wheat (Triticum aestivum), corn (Zea mays), and pigweed (Amaranthus retroflexus), were planted into a blend of loam soil and sand and treated preemergence with a directed soil spray using test chemicals formulated in a non-phytotoxic solvent mixture which included a surfactant. At the same time, plants selected from these crop and weed species and also blackgrass (Alopecurus myosuroides), and galium (catchweed bedstraw, Galium aparine), were planted in pots containing the same blend of loam soil and sand and treated with postemergence applications of test chemicals formulated in the same manner. Plants ranged in height from 2 to 10 cm and were in the one- to two-leaf stage for the postemergence treatment. Treated plants and untreated controls were maintained in a greenhouse for approximately 10 d, after which time all treated plants were compared to untreated controls and visually evaluated for injury. Plant response ratings, summarized in Table A, are based on a 0 to 100 scale where 0 is no effect and 100 is complete control. A dash (-) response means no test result.
row,Compound,"Plant response rating, Wheat"
1,O=C(Nc1ccccc1C(F)(F)F)C1C(=O)OCC1c1ccc(F)c(C(F)(F)F)c1 (racemic) [Compound 17],0

# Same assay, conditions: 500 g ai/ha, visual rating after approx. 10 d, 0 to 100 scale, 0 no effect, 100 complete control
row,Compound,"Plant response rating, Wheat"
1,O=C(Nc1ccccc1C(F)(F)F)C1C(=O)OCC1c1ccc(F)c(C(F)(F)F)c1 (racemic) [Compound 17],0

# Tested on: foxtail, giant (giant foxtail, Setaria faberii)
# Experiment: Test A postemergence, giant foxtail
# Format: in vivo
# Details: 125 g ai/ha, visual rating after approx. 10 d, 0 to 100 scale, 0 no effect, 100 complete control
# Source text: as §1
row,Compound,"Plant response rating, Foxtail, Giant"
1,O=C(Nc1ccccc1C(F)(F)F)C1C(=O)OCC1c1ccc(F)c(C(F)(F)F)c1 (racemic) [Compound 17],0

# Same assay, conditions: 500 g ai/ha, visual rating after approx. 10 d, 0 to 100 scale, 0 no effect, 100 complete control
row,Compound,"Plant response rating, Foxtail, Giant"
1,O=C(Nc1ccccc1C(F)(F)F)C1C(=O)OCC1c1ccc(F)c(C(F)(F)F)c1 (racemic) [Compound 17],20

# Tested on: ducksalad (Heteranthera limosa)
# Experiment: Test B flooded paddy test, ducksalad
# Format: in vivo
# Details: 500 g ai/ha; applied to paddy water at 2-leaf stage; 13 to 15 d; scale 0 no effect to 100 complete control
# Procedure: (§2) Plant species in the flooded paddy test selected from rice (Oryza sativa), sedge, umbrella (small-flower umbrella sedge, Cyperus difformis), ducksalad (Heteranthera limosa), and barnyardgrass (Echinochloa crus-galli) were grown to the 2-leaf stage for testing. At time of treatment, test pots were flooded to 3 cm above the soil surface, treated by application of test compounds directly to the paddy water, and then maintained at that water depth for the duration of the test. Treated plants and controls were maintained in a greenhouse for 13 to 15 d, after which time all species were compared to controls and visually evaluated. Plant response ratings, summarized in Table B, are based on a scale of 0 to 100 where 0 is no effect and 100 is complete control. A dash (-) response means no test result.
row,Compound,"Plant response rating, Flood, Ducksalad"
1,O=C(Nc1ccccc1C(F)(F)F)C1C(=O)OCC1c1ccc(F)c(C(F)(F)F)c1 (racemic) [Compound 17],0

# Tested on: barnyardgrass (Echinochloa crus-galli)
# Experiment: Test B flooded paddy test, barnyardgrass
# Format: in vivo
# Details: 500 g ai/ha; applied to paddy water at 2-leaf stage; 13 to 15 d; scale 0 no effect to 100 complete control
# Procedure: as §2
row,Compound,"Plant response rating, Flood, Barnyardgrass"
1,O=C(Nc1ccccc1C(F)(F)F)C1C(=O)OCC1c1ccc(F)c(C(F)(F)F)c1 (racemic) [Compound 17],0

# Tested on: ryegrass, Italian (Italian ryegrass, Lolium multiflorum)
# Experiment: Test A preemergence, Italian ryegrass
# Format: in vivo
# Details: 125 g ai/ha, visual rating after approx. 10 d, 0 to 100 scale, 0 no effect, 100 complete control
# Source text: as §1
row,Compound,"Plant response rating, Ryegrass, Italian"
1,O=C(Nc1ccccc1C(F)(F)F)C1C(=O)OCC1c1ccc(F)c(C(F)(F)F)c1 (racemic) [Compound 17],0

# Same assay, conditions: 500 g ai/ha, visual rating after approx. 10 d, 0 to 100 scale, 0 no effect, 100 complete control
row,Compound,"Plant response rating, Ryegrass, Italian"
1,O=C(Nc1ccccc1C(F)(F)F)C1C(=O)OCC1c1ccc(F)c(C(F)(F)F)c1 (racemic) [Compound 17],0

# Tested on: barnyardgrass (Echinochloa crus-galli)
# Experiment: Test A postemergence, barnyardgrass
# Format: in vivo
# Details: 125 g ai/ha, visual rating after approx. 10 d, 0 to 100 scale, 0 no effect, 100 complete control
# Source text: as §1
row,Compound,"Plant response rating, Barnyardgrass"
1,O=C(Nc1ccccc1C(F)(F)F)C1C(=O)OCC1c1ccc(F)c(C(F)(F)F)c1 (racemic) [Compound 17],0

# Same assay, conditions: 500 g ai/ha, visual rating after approx. 10 d, 0 to 100 scale, 0 no effect, 100 complete control
row,Compound,"Plant response rating, Barnyardgrass"
1,O=C(Nc1ccccc1C(F)(F)F)C1C(=O)OCC1c1ccc(F)c(C(F)(F)F)c1 (racemic) [Compound 17],0

# Tested on: kochia (Kochia scoparia)
# Experiment: Test A postemergence, kochia
# Format: in vivo
# Details: 125 g ai/ha, visual rating after approx. 10 d, 0 to 100 scale, 0 no effect, 100 complete control
# Source text: as §1
row,Compound,"Plant response rating, Kochia"
1,O=C(Nc1ccccc1C(F)(F)F)C1C(=O)OCC1c1ccc(F)c(C(F)(F)F)c1 (racemic) [Compound 17],0

# Same assay, conditions: 500 g ai/ha, visual rating after approx. 10 d, 0 to 100 scale, 0 no effect, 100 complete control
row,Compound,"Plant response rating, Kochia"
1,O=C(Nc1ccccc1C(F)(F)F)C1C(=O)OCC1c1ccc(F)c(C(F)(F)F)c1 (racemic) [Compound 17],0

# Tested on: ryegrass, Italian (Italian ryegrass, Lolium multiflorum)
# Experiment: Test A postemergence, Italian ryegrass
# Format: in vivo
# Details: 125 g ai/ha, visual rating after approx. 10 d, 0 to 100 scale, 0 no effect, 100 complete control
# Source text: as §1
row,Compound,"Plant response rating, Ryegrass, Italian"
1,O=C(Nc1ccccc1C(F)(F)F)C1C(=O)OCC1c1ccc(F)c(C(F)(F)F)c1 (racemic) [Compound 17],0

# Same assay, conditions: 500 g ai/ha, visual rating after approx. 10 d, 0 to 100 scale, 0 no effect, 100 complete control
row,Compound,"Plant response rating, Ryegrass, Italian"
1,O=C(Nc1ccccc1C(F)(F)F)C1C(=O)OCC1c1ccc(F)c(C(F)(F)F)c1 (racemic) [Compound 17],0

# Tested on: pigweed (Amaranthus retroflexus)
# Experiment: Test A preemergence, pigweed
# Format: in vivo
# Details: 125 g ai/ha, visual rating after approx. 10 d, 0 to 100 scale, 0 no effect, 100 complete control
# Source text: as §1
row,Compound,"Plant response rating, Pigweed"
1,O=C(Nc1ccccc1C(F)(F)F)C1C(=O)OCC1c1ccc(F)c(C(F)(F)F)c1 (racemic) [Compound 17],0

# Same assay, conditions: 500 g ai/ha, visual rating after approx. 10 d, 0 to 100 scale, 0 no effect, 100 complete control
row,Compound,"Plant response rating, Pigweed"
1,O=C(Nc1ccccc1C(F)(F)F)C1C(=O)OCC1c1ccc(F)c(C(F)(F)F)c1 (racemic) [Compound 17],0

# Tested on: galium (catchweed bedstraw, Galium aparine)
# Experiment: Test A postemergence, galium
# Format: in vivo
# Details: 125 g ai/ha, visual rating after approx. 10 d, 0 to 100 scale, 0 no effect, 100 complete control
# Source text: as §1
row,Compound,"Plant response rating, Galium"
1,O=C(Nc1ccccc1C(F)(F)F)C1C(=O)OCC1c1ccc(F)c(C(F)(F)F)c1 (racemic) [Compound 17],0

# Same assay, conditions: 500 g ai/ha, visual rating after approx. 10 d, 0 to 100 scale, 0 no effect, 100 complete control
row,Compound,"Plant response rating, Galium"
1,O=C(Nc1ccccc1C(F)(F)F)C1C(=O)OCC1c1ccc(F)c(C(F)(F)F)c1 (racemic) [Compound 17],0
